Legend:
Assay type in all cases: cell-based, human
iPS cells: Tic (Np 39) [1] = experiment: Influences of feeder cells on iPS cells: Rac-1 inhibitor added in culture on MEF feeder cells; settings: Rac-1 inhibitor 50, 100, or 150 μM added at day 3, outer edge part without inhibitor
Procedure: (§1) On feeder cells, iPS cells were seeded, and the culture medium was exchanged with a maintenance medium every 24 hours until day 7. After the culture, the expression of Oct3/4 of the cultured cells was confirmed by immunocytostaining, and DAPI staining was performed. The used cells and media, as well as the culture conditions are as follows.
iPS cells: Repro Stem (trade name, manufactured by ReproCELL J, Inc.), 5 ng/mL FGF-2
Micrographs obtained are illustrated in FIG. 17.
Next, cells were cultured and observed in the same manners as those described above except that a Rac-1 inhibitor (trade name: NSC23766, Calbiochem brand), which is a migration inhibitor, was added at 50, 100, or 150 μM at three days after the start of the culture (day 3). The obtained micrographs are illustrated in FIG. 17.
Dilution of Rac-1 inhibitor: the Rac-1 inhibitor was diluted by using a medium (Repro Stem) (final concentration: 50 or 100 μM).
Further, bFGF (trade name, manufactured by ReproCELL, Inc., final concentration 5 ng/ml) was added thereto, and the Rac-1 inhibitor thus diluted was added to iPS cells.

iPS cells: Tic (Np 39) [2] = experiment: Influences of feeder-free culture on iPS cells: Rac-1 inhibitor added; settings: Rac-1 inhibitor 100 or 150 μM at day 3 (FIG. 19: 150 μM), Synthemax Surface
Procedure: as §1, with “Synthemax Surface (trade name, manufactured by Corning Inc.) was used as a culture surface, and” for “On feeder cells,”, “seeded thereover. The” for “seeded, and the”
mTeSR (Trade Mark) 1 medium (trade name, manufactured by STEMCELL, Technologies)
Next, cells were cultured and observed in the same manner as those described above except that the Rac-1 inhibitor was added at 100 or 150 μM at three days after the start of the culture (day 3). Micrographs obtained are illustrated in FIG. 19. FIG. 19 illustrates micrographs obtained in the case where the Rac-1 inhibitor was 150 μM.

iPS cells = experiment: Rac-1 inhibitor added in culture on SNL feeder cells; settings: Rac-1 inhibitor 50 or 100 μM added at day 3, same as without inhibitor
Procedure: Culture was performed by using SNL feeder cells as the feeder cells and adding the Rac-1 inhibitor (50 or 100 μM) at three days after the culture start (day 3).

How did the “Part of the colony where deviated cells emerge” value (iPS cells: Tic (Np 39) [1]) turn out when `CCN(CC)CCCC(C)Nc1nc(C)cc(Nc2ccc3nc(C)cc(N)c3c2)n1` (racemic) [Rac-1 inhibitor] was run?
Its value is “emerge in the center part of the colony”.

And the “Part of the colony where deviated cells emerge” value (iPS cells: Tic (Np 39) [2])?
The value was “allowed deviated cells to emerge in the center part of a colony”.

What about the “Part of the colony where deviated cells grew” value (iPS cells) of the same compound?
The value was “Deviated cells grew in the center part of a colony”.

— patent publication US9822344B2, “Method for culturing pluripotent stem cells” (OSAKA UNIVERSITY, priority 2012, dated 2017)
